According to patent US20240082342A1, “PEPTIDE THERAPEUTICS FOR INCREASING LUNG CELL VIABILITY” (BOARD OF REGENTS, THE UNIVERSITY OF TEXAS SYSTEM, priority 2018, published 2024):
“Also recorded” adds a separate entry of the source.

Tests used:
[1] = tested on: A2Cs of WT mice exposed to tobacco smoke; test: Chronic passive tobacco smoke (20 weeks) lung injury in WT mice, A2C telomere analyses; type: in vivo, mouse; conditions: 20 weeks smoke
Experimental: Relative telomere length was also analyzed by qPCR analysis of the genomic DNA as described by Callicott R J et al., (Comp Med 2006; 56:17-22) and Cawthon RM (Nucleic Acids Res 2002; 30:e47-e47). The […] gene was served as the control.
To test the effect of chronic TS exposure induced lung injury, these mice were exposed to passive TS from 40 research cigarettes over a 4 h period 5 days/week for 20 weeks (˜90 mg/m3 total solid particulates) using a mechanical smoking chamber (Teague Enterprises, Davis, CA) as described earlier. (Bhandary et al, 2015). Control mice were kept in ambient air. After sixteen weeks of daily passive TS exposure, mice with TS exposure injury were treated with CSP7 at a dosage of 1.5 mg/kg body weight daily 5 days/week for the next four weeks. These mice were continued with daily exposure of 4 h of TS during CSP7 treatment. At the end of the experiment (after 20 weeks of TS exposure), the mice were euthanized, and lungs were utilized for further analyses. To expand the local delivery options of CSP7 to directly treat the damaged lung by air-jet milling for dry powder inhalation (DPI). Mice exposed to TSE were treated with CSP7 using a rotating brush generator for 15 min daily for 7 days. Fourteen days later, […] were subjected to daily inhalation of micronized CSP7 (0.05 mg/kg/d) DP through air-jet-milling for seven consecutive days using a rotating brush exposure system. The rotating brush exposure system gave a consistent minimal chamber concentration of 0.1 mg/L. In order to match dosing of DP inhalation, animal exposure times were adjusted to approximately 15 minutes and an estimated dose of 0.05 mg/kg/d or 1.00 microgram/lung was administered. […]
Measurement of terminal restriction fragment (telomeric) length. For the determination of telomeric length, the TeloTTAGGG Telomere Length Assay Kit (Roche Diagnostics GmbH) was used. Briefly, genomic DNA was isolated and digested with Hinf1/Rsa. The digested DNA fragments were then separated by electrophoresis on agarose gel followed by Southern blot transfer. The membrane was then hybridized with a telomere specific digoxigenin (DIG)-labelled probe, incubated with anti-DIG alkaline phosphatase, and documented with chemiluminescence detection in gel-doc unit (Bio-Rad Laboratories). Telomeric length was identified by comparing with the pre-labelled molecular weight marker. The relative telomere length was calculated according to the protocol provided. In addition, relative telomere length was analyzed by qPCR analysis of the genomic DNA. (Cawthon, Nucleic Acids Res 2002, 30:e47-e47; Alder et al, Proc Natl Acad Sci USA 2015, 112:5099-5104.) The 36B4 gene was served as the control.

PP2A = molecular target: T1, PP2A (Mus musculus, UniProt P63330); test: PP2A activity assay in lung homogenates of CS exposed WT mice; type: in vivo; conditions: WT mice with CS-LI, Neb or IP, 4 weeks
T1 construct: from tissue; host or cells: lung homogenates of WT C57BL/6J mice
T1 sequence (P63330 whole entry): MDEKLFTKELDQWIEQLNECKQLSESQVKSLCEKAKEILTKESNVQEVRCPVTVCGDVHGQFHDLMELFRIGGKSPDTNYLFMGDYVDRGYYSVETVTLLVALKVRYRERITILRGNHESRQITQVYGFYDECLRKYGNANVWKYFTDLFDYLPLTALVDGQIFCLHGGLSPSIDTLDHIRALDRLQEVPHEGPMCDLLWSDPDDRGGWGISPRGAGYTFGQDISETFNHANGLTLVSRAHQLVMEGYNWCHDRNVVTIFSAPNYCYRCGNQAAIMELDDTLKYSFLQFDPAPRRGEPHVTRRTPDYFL
Experimental: PP2A Activity Determination and PP2A Inhibitors PP2A activity was determined using the Millipore PP2A activity assay (17-313; Millipore) (Nath S, et al., Am J Respir Cell Mol Biol. 59:695-705, 2018 December).
Determination of protein phosphatase 2A (PP2A) activity. PP2A activity was determined in isolated AECs and lung homogenates using the PP2A activity assay kit (Millipore) (Nath et al, Am J Respir Cell Mol Biol 59:695-705, 2018. doi: 10.1165/rcmb.2018-01730C.)

A2Cs of IL-17A^−/− mice = test: Tobacco smoke exposure of IL-17A-/- mice; type: in vivo, mouse; conditions: 20 weeks TS; for IHC Trf1 or Trf2 antigen staining: IL-17A-deficient mice
Experimental: Mouse models and CSP7 treatment. All experiments involving mice were performed according to the approved protocols under the guidelines of Institutional Animal Care and Use Committee. Wild type (WT), and PAI-1^−/− and uPA^−/− mice of C57BL/6 background purchased from Jackson Laboratory (Bar Harbor, ME) were used for the experiments. IL-17A^−/− mice were obtained from University of Tokyo, Japan.
To test the effect of chronic TS exposure induced lung injury, these mice were exposed to passive TS from 40 research cigarettes over a 4 h period 5 days/week for 20 weeks (˜90 mg/m3 total solid particulates) using a mechanical smoking chamber (Teague Enterprises, Davis, CA) as described earlier. (Bhandary et al, 2015). Control mice were kept in ambient air. After sixteen weeks of daily passive TS exposure, mice with TS exposure injury were treated with CSP7 at a dosage of 1.5 mg/kg body weight daily 5 days/week for the next four weeks. These mice were continued with daily exposure of 4 h of TS during CSP7 treatment. At the end of the experiment (after 20 weeks of TS exposure), the mice were euthanized, and lungs were utilized for further analyses. To expand the local delivery options of CSP7 to directly treat the damaged lung by air-jet milling for dry powder inhalation (DPI). Mice exposed to TSE were treated with CSP7 using a rotating brush generator for 15 min daily for 7 days. Fourteen days later, BLM mice were subjected to daily inhalation of micronized CSP7 (0.05 mg/kg/d) DP through air-jet-milling for seven consecutive days using a rotating brush exposure system. The rotating brush exposure system gave a consistent minimal chamber concentration of 0.1 mg/L. In order to match dosing of DP inhalation, animal exposure times were adjusted to approximately 15 minutes and an estimated dose of 0.05 mg/kg/d or 1.00 microgram/lung was administered.

| Substance | IHC of lung sections for TRF2, p53, PAI-1, TRF1 [1] | SIAH-1 expression in A2Cs [1] | TRF2 and TERT expression in A2Cs [1] | p53, cleaved caspase-3 and β-galactosidase expression in A2Cs (Western blot) [1] | TERT enzyme activity (TRAPeze assay) ([1]; vs CP group) | relative telomere length of A2Cs (qPCR), telomere shortening ([1]; vs control peptide CP) | PP2A activity / signaling (PP2A) | baseline telomerase activity (A2Cs of IL-17A^−/− mice; IL-17A-/- mice) | telomere shortening in A2Cs (A2Cs of IL-17A^−/− mice; IL-17A-/- mice) | IHC Trf1 or Trf2 antigen staining (A2Cs of IL-17A^−/− mice) |
| --- | --- | --- | --- | --- | --- | --- | --- | --- | --- | --- |
| FTTFTVT (listed as Homo sapiens) [CSP7, heptapeptide fragment of the caveolin-1 scaffolding domain peptide CSP] | restoration of TRF2 expression with reduction in p53 and PAI-1 expression | Downregulation of SIAH-1 was significantly more; also recorded: markedly downregulated | restoration of TRF2 and TERT expression | significant decrease; also recorded: markedly suppressed | significantly higher | significant resistance in telomere shortening | reversed by CSP7; also recorded: improved PP2A activity | limited effects on baseline telomerase activity | minimal effect | little change in Trf1 or Trf2 antigen staining |
| WGIDKAFFTTSTVTYKWFRY [CP, scrambled control peptide with the same amino acid composition as CSP, reference compound] |  | still showed elevated p53 and SIAH-1 |  |  |  |  | still showed loss of PP2A activity |  | minimal effect | little change in Trf1 or Trf2 antigen staining |
